Results: PubChem BioAssay AID1117361 (Southern Research Institute, 2015)

target: Protein Tat (Human immunodeficiency virus type 1 group M subtype B (isolate HXB2)) (UniProt P04608); assay: HIV-1 Tat–TAR interaction blockers – biochemical, fluorescence polarization, FAM-labeled TAR RNA, counter-screen for Vif-APOBEC3G degradation inhibitor project, dose response (AID 1117361); settings: Tat-TAR RNA binding
Sequence (P04608 whole entry, looked up): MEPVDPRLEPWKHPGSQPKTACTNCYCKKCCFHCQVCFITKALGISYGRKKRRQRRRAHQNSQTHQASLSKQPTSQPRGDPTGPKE

| Structure (SMILES) | IC50 [µM] |
| --- | --- |
| CN(C(=O)COC(=O)c1cc(-c2ccco2)nc2ccccc12)C1CCS(=O)(=O)C1 (stereo unspecified) | 6.36 |
| O=C1Cc2cccc(=O)c(O)c2C(=O)O1 | 87.7 |
| Cc1ccc[n+](-c2[nH]c(=O)sc2/C=N/NC(=O)c2ccccc2[O-])c1 | 22.1 |
| O=C(O)Cc1cccc(=O)c(O)c1C(=O)O | 54.7 |
| O=[N+]([O-])c1c(NCCO)cc(Sc2nc3ccccc3s2)c2nonc12 | 90.1 |
| COc1ccc2c3c(cccc13)N(C)N=C2C | 11.1 |
| CC1=NN(c2cccc(C(=O)O)c2)C(=O)/C1=C\C=C\c1ccco1 | 12 |
| CCN(CC)C(=O)c1ccc2c(c1)C1C(Cl)C(Sc3ccccc3[N+](=O)[O-])CC1C(C(=O)O)N2 (stereo unspecified) | 5.54 |
| FC(F)(F)c1cc(-c2ccco2)nc(NCc2ccco2)n1 | 28.5 |
| Cc1cccc(NC(=S)NC(=O)/C=C/c2ccco2)c1 | 20.2 |
| CN1C(=O)/C(=C/c2ccco2)SC1=Nc1cccc(C(=O)O)c1 | 7.93 |
| CCOc1cc(N2CCOCC2)c(OCC)cc1NC(=O)CSc1ncn[nH]1 | 35.7 |
| COc1cc(C(=O)NCc2nnc(SCC(=O)Nc3nc4ccc(C)cc4s3)o2)cc(OC)c1OC | 35.9 |
| Cc1ccc(C(=O)Nc2ccc(O)c(C(=O)O)c2)o1 | 19.4 |
| COc1cccc(N2C(=O)NC(=O)/C(=C/c3ccc([N+](=O)[O-])s3)C2=O)c1 | 34.3 |
| CC(=O)NC1=NC(=O)/C(=C/c2cc(C)n(-c3cccc(C(=O)O)c3)c2C)S1 | 29.7 |
| O=C1NC(=O)N(Cc2ccc(F)cc2)C(=O)/C1=C\C=C\c1ccco1 | 42.3 |
| O=C1/C(=C\c2ccco2)SC(=S)N1Cc1ccccc1 | 17.5 |
| Fc1ccccc1/C=C1\CCCC2=C1Nc1ncnn1C2c1ccccc1F (stereo unspecified) | 23.7 |
| Nc1ccc(N(CCO)CCO)cc1 | 9.62 |
| C=C(C)C(=O)Nc1cccc(C2=NOC3(C2)C[C@H](C(N)=O)N(C(=O)COc2ccc(Cl)cc2)C3)c1 (stereo partly specified) | 17.3 |

| Structure (SMILES) | IC50 [µM] |
| --- | --- |
| Cc1ccc(C)n1-c1ccc(C(=O)O)cc1 | 9.09 |
| O=C(NCc1ccccn1)c1coc(=O)c(Br)c1 | 88.3 |
| CNc1ccc(Br)cc(C(=O)/C=C/c2ccc(Cl)cc2Cl)c1=O | 9.56 |
| O=C(O)CSc1c2c(nc3cc(C(=O)N4CCOCC4)ccc13)CCCC2 | 12.2 |
| O=C1CC(c2ccco2)CC(O)=C1C=Nc1cc(Cl)ccc1Cl (stereo unspecified) | 7.33 |
| Cc1ccc(-n2c(-c3cc(-c4ccco4)[nH]n3)n[nH]c2=S)c(Br)c1 | 6.09 |
| COc1ccc(NC(=O)CN(C)C(=O)c2cc(-c3ccco3)nc3ccccc23)cc1 | 46.4 |
| O=C(CCCN1C(=O)/C(=C\c2ccco2)SC1=S)Nc1cccc2ccccc12 | 7.92 |
| Cc1ccc(Cn2c(=S)[nH]c3ccc(N4CCOCC4)cc3c2=O)o1 | 3.98 |
| O=c1cc2c(=O)oc3cc(O)c(O)oc3c2c(O)c1O | 12.3 |
| C=CC(=O)N1C/C(=C/c2ccc(F)cc2)C(=O)/C(=C\c2ccc(F)cc2)C1 | 89.5 |
| Cc1ccc(C(=O)N/N=C\c2cc(Br)c(Br)o2)cn1 | 2.34 |
| COc1cc(C2C(C#N)=C(N)N(c3cccnc3)C3=C2C(=O)CCC3)ccc1O (stereo unspecified) | 43.4 |
| CCN1C[C@@H]2[C@@H]3C(=O)N(Cc4ccccc4)C(=O)[C@@H]3[C@](C)(C(=O)OC)N2C1=NC1CCCCC1 | 79.8 |
| CCN(CC)c1ccc(NC2CC(=O)N(CCc3ccc(OC)cc3)C2=O)cc1 (stereo unspecified) | 27.3 |
| O=[N+]([O-])c1cc(CN2CCCC2)c2cccnc2c1O | 8.94 |
| Cc1ccc2c(c1)C1C=CCC1C(C(=O)O)N2 (stereo unspecified) | 3.75 |
| O=C(Cc1ccccc1)NC(Nc1ccccc1)C(Cl)(Cl)Cl (stereo unspecified) | 87.8 |
| CC1=C(C#N)C(=O)N(C2CCS(=O)(=O)C2)C(=O)/C1=C\c1ccco1 (stereo unspecified) | 2.88 |
| Cn1c(=O)c2c(ncn2CC(=O)N/N=C/C=C/c2ccco2)n(C)c1=O | 17.1 |
| O=C(O)C1Nc2c(Cl)cc(Cl)c(Cl)c2C2C=CCC12 (stereo unspecified) | 45.9 |

| Structure (SMILES) | IC50 [µM] |
| --- | --- |
| CCC(c1nnnn1C(C)(C)CC)N(CCCO)Cc1cc2cc(C)cc(C)c2[nH]c1=O (stereo unspecified) | 1.88 |
| CC1(C)CCCN(C(=O)c2coc(=O)c(Br)c2)C1 | 7.77 |
| CC(C)N1CCC2(CC1)C(C#N)=C(N)NC(S)=C2C#N | 47.6 |
| CC(C)CC(=O)Nc1nnc(-c2ccco2)s1 | 53.8 |
| Cc1cccn2c(=O)c3cc(C(=O)NCc4ccco4)c(=N)n(CCc4ccccc4)c3nc12 | 11.8 |
| O=C1/C(=C/c2ccco2)Oc2c1ccc(O)c2CN1CCCCC1 | 4.3 |
| N#CC(C#N)=Cc1cccn1-c1ccc(C(=O)O)cc1 | 33.3 |
| Cc1cccc(/C=C(\C(=O)O)c2ccc(S(=O)(=O)N3CCCC3)s2)c1 | 98 |
| Cc1ccc2cc(CN(Cc3nnnn3Cc3ccco3)CC3CCCO3)c(=O)[nH]c2c1C (stereo unspecified) | 29.4 |
| O=[N+]([O-])c1c(NCCCO)cc(SCc2ccco2)c2nonc12 | 16.5 |
| O=C1CC(c2ccco2)CC(O)=C1C=Nc1ccc(Br)cc1 (stereo unspecified) | 77.6 |
| Cc1cnnc2ccc3c(no[n+]3[O-])c12 | 36.5 |
| Cc1cc(C(=O)Nc2sc3c(c2C#N)CCCCC3)cs1 | 23.6 |
| C=CCn1c(C)c(C(C)=O)c(N2CCN(c3ccccc3)CC2)nc1=S | 7.51 |
| Nc1ccc2c(O)cc(S(=O)(=O)O)cc2c1 | 48 |
| CN(C)c1ccc(O)c2c1CC1CC3[C@@H](N(C)C)C(=O)C(C(N)=O)=C(O)[C@]3(O)C(=O)C1=C2O (stereo partly specified) | 6.14 |
| Cc1cc(C)cc(NC(=O)CSc2nc3c(c(=O)n2C)SC(C)C3)c1 (stereo unspecified) | 56.9 |
| c1cnc(N2CCN(c3cnccn3)CC2)nc1 | 71.9 |
| C=C(C)C(=O)Nc1cccc(C2=NOC3(C2)C[C@@H](C(N)=O)N(C(=O)c2cc([N+](=O)[O-])cc([N+](=O)[O-])c2)C3)c1 (stereo partly specified) | 52.9 |
| COc1ccc(-n2c(C)cc(C(=O)CSc3nn4c(=O)c(C(C)(C)C)nnc4s3)c2C)cc1 | 62.7 |
| Nc1cccc2cc(S(=O)(=O)O)ccc12 | 67.9 |

| Structure (SMILES) | IC50 [µM] |
| --- | --- |
| O=C(O)c1c2c(nc3ccc(Cl)cc13)CCC2 | 13.2 |
| Cc1cc(C)c([N+](=O)[O-])cc1-c1ccc(/C=N/c2c(-c3ccco3)nc3ccccn23)o1 | 57.5 |
| O=C(O)Cc1ccc(N=Nc2c(O)c(C(=O)O)cc3ccccc23)cc1 | 27.5 |
| O=c1c(O)cccc2cc(O)c(O)c(O)c12 | 3.96 |
| CC(=O)c1ccc(NC(=O)CSc2nnc(-c3ccco3)c(-c3ccco3)n2)cc1 | 6.61 |
| CNc1ccc(Br)cc(C(=O)/C=C/c2ccc(OC)cc2OC)c1=O | 52 |
| C=CCn1c(SCC(=O)NCCCC)nc2scc(-c3ccco3)c2c1=O | 17.8 |
| C=CCOC(=O)C1=C(C)NC(SCC(=O)Nc2ccccc2)=C(C#N)C1c1ccco1 (stereo unspecified) | 57.5 |
| COc1cc(CNc2ccc(O)cc2)cc(Br)c1OCc1ccccc1 | 34.5 |
| Clc1ccc(OCc2nn3c(-c4ccco4)nnc3s2)c(Cl)c1 | 51.5 |
| O=C(O)c1ccc(COc2c(F)c(F)c(F)c(F)c2F)o1 | 90.6 |
| CCOc1ccc(NCC2CCOC(C)(C)C2)cc1 (stereo unspecified) | 64.8 |
| COc1ccc(CCNC(=O)c2ccc3nc(-c4ccco4)c(-c4ccco4)nc3c2)cc1OC | 4.32 |
| COc1ccc(N=C2NC(=O)/C(=C\C=C\c3ccco3)S2)cc1 | 6.32 |
| CCCCn1c(=NC(=O)c2cccnc2)c(C#N)cc2c(=O)n3cccc(C)c3nc21 | 4.74 |
| O=C1C=C(N2CC2)c2ccccc2C1=O | 80.9 |
| O=C(NN1C(=O)/C(=C/C=C/c2ccco2)SC1=S)c1ccncc1 | 2.69 |
| O=[N+]([O-])c1ccc(-c2ccc(/C=N/c3c(-c4ccco4)nc4ccccn34)o2)cc1 | 1.4 |
